{"source": "patent US20070218531A1", "about": "“Micro-Organism and a Method of Producing Paclitaxel by the Use of the Same” (HAIYI BIOTECH PTE LTD, priority 2004, published 2007)", "test_system": "breast cancer cells", "test": "In vitro bioactivity analysis: killing of cancer cells by minimal MTT method", "assay_type": "cell-based", "settings": "culture medium RPMI-1640 containing 2% calf serum, compared with paclitaxel standard sample", "description": "FIG. 10 is the chart of the effects of paclitaxel sample made by the method of present invention and standard paclitaxel sample on the killing percentage against […] cells by minimal MTT method by the use of culture medium RPMI-1640 containing 2% calf serum.\nIn vitro bioactivity analysis of the fermented paclitaxel show high efficacy on killing breast cancer cells."}
{"smiles": "CC(=O)O[C@H]1C(=O)[C@@]2(C)[C@H]([C@H](OC(=O)c3ccccc3)[C@]3(O)C[C@H](OC(=O)[C@H](O)[C@@H](NC(=O)c4ccccc4)c4ccccc4)C(C)=C1C3(C)C)[C@]1(OC(C)=O)CO[C@@H]1C[C@@H]2O", "note": "[fermented paclitaxel, 5β, 20-epoxy-1,2α,4,7β 10β 13α-hexahydroxy-tax-11-en-9-one-4,10-diacetate-2-benzoate-13-ester with (2R, 3S)-N-benzoyl-3-phenyl isoserine]", "values": [{"measurement": "efficacy on killing breast cancer cells (killing percentage, FIG. 10)", "value": "high efficacy"}, {"measurement": "efficacy on killing breast cancer cells (killing percentage, FIG. 10)", "setting": "listed as paclitaxel from Examples 20-24", "value": "same effects as paclitaxel standard samples"}]}
